Here are results for 10 molecules from PubChem BioAssay (NCI).

Among the test systems are COLO 205 colon; HT29 colon; K-562 leukemia; RPMI-8226 leukemia; SNB-19 CNS; UACC-62 melanoma; OVCAR-5 ovarian; SN12C renal; SF-268 CNS; TK-10 renal.
Holding throughout (assay): NCI tumour cell line growth inhibition, 48 h

Where “and” joins values, the source holds several entries; their conditions need not be identical. Identical values can stand only once.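 The compound was tested at five concentrations on cells cultured in 96-well plates, with a 48-hour exposure period. GI50: concentration for 50% inhibition of growth. TGI: concentration producing complete growth inhibition.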 Where only a bound is given, the exact number is not on record here.

For `Nc1nc2c(ccc3ccccc32)s1`, the GI50 in the assay with COLO 205 colon is more than 100 µM; with HT29 colon it was more than 100 µM; in the assay on K-562 leukemia, 91.5 µM; with RPMI-8226 leukemia it was 43.8 µM; with SNB-19 CNS, more than 100 µM; in the assay on UACC-62 melanoma, 75.8 µM. For the same molecule, the GI50 is more than 100 µM in the assay on OVCAR-5 ovarian, more than 100 µM with SN12C renal, 33.2 µM in the assay on SF-268 CNS and 35.2 µM in the assay on TK-10 renal. Moreover, the TGI in the assay on COLO 205 colon, in the assay with HT29 colon, in the assay on K-562 leukemia, in the assay on RPMI-8226 leukemia, in the assay on SNB-19 CNS and in the assay on UACC-62 melanoma was more than 100 µM each time. For the same molecule, the TGI with OVCAR-5 ovarian, in the assay on SN12C renal, in the assay with SF-268 CNS and in the assay on TK-10 renal was more than 100 µM throughout.

As to `C1CC2=C(C1)C1=S(S2)SC2=C1CCC2`, the TGI in the assay with COLO 205 colon, in the assay on HT29 colon, in the assay on K-562 leukemia, in the assay on RPMI-8226 leukemia, in the assay on SNB-19 CNS and in the assay on UACC-62 melanoma was more than 100 µM each time. Besides, the TGI with OVCAR-5 ovarian, with SN12C renal, in the assay on SF-268 CNS and in the assay on TK-10 renal was more than 100 µM in each case.

Take `O=C(N/C(=C/c1cccc([N+](=O)[O-])c1)c1nc2ccc(Cl)cc2[nH]1)c1ccccc1`: the TGI was more than 100 µM with COLO 205 colon; 50.9 µM with HT29 colon; 46.9 µM with K-562 leukemia; 69.7 µM in the assay on RPMI-8226 leukemia; more than 100 µM with SNB-19 CNS; 33.5 µM with UACC-62 melanoma. Moreover, the TGI with OVCAR-5 ovarian is 78.6 µM; with SN12C renal it was 87.4 µM; with SF-268 CNS it was more than 100 µM; in the assay with TK-10 renal, 62.1 µM.

Turning to `CCn1c(=N)sc2nc3ccccc3n2c1=O`, the TGI in the assay with COLO 205 colon, in the assay with HT29 colon, with K-562 leukemia, in the assay with RPMI-8226 leukemia, with SNB-19 CNS and with UACC-62 melanoma was more than 100 µM in each case. Moreover, the TGI in the assay with OVCAR-5 ovarian, in the assay on SN12C renal, in the assay with SF-268 CNS and in the assay with TK-10 renal was more than 100 µM in each case.

On to `CCC(C)(O)c1cn(-c2ccc(S(=O)(=O)O)cc2)nn1` (stereo not given), for which the TGI with COLO 205 colon, with HT29 colon, in the assay on K-562 leukemia, with RPMI-8226 leukemia, in the assay with SNB-19 CNS and in the assay with UACC-62 melanoma was more than 100 µM each time. Further, the TGI in the assay on OVCAR-5 ovarian, in the assay on SN12C renal, in the assay with SF-268 CNS and in the assay with TK-10 renal was more than 100 µM each time.

Take `NC(CSC(c1ccccc1)(c1ccccc1)c1ccc(F)cc1)C(=O)O` (stereo not given): the GI50 in the assay with COLO 205 colon was 0.231 µM; in the assay with HT29 colon, 0.803 µM; in the assay with K-562 leukemia it was 0.356 µM; with RPMI-8226 leukemia it was 0.279 µM; in the assay with SNB-19 CNS, 0.458 µM; with UACC-62 melanoma, 0.408 µM. In addition, the GI50 is 4.18 µM with OVCAR-5 ovarian, 0.564 µM with SN12C renal, 0.505 µM in the assay on SF-268 CNS and 13.3 µM in the assay on TK-10 renal. For the same molecule, the TGI was 0.667 µM with COLO 205 colon; more than 27.8 µM in the assay on HT29 colon; 12.7 µM in the assay on RPMI-8226 leukemia; more than 47.4 µM in the assay with SNB-19 CNS; more than 76.5 µM in the assay on OVCAR-5 ovarian; more than 70.7 µM with SN12C renal. In addition, the TGI is 35.1 µM in the assay with SF-268 CNS and more than 100 µM in the assay with TK-10 renal.

As for `CCN(CC)c1ccc(N=Nc2ccc(-c3nc4cccn(C)c-4n3)cc2)cc1`, the TGI turned out to be 27.9 µM in the assay with COLO 205 colon; 13.8 µM with HT29 colon; 11.9 µM in the assay on K-562 leukemia; 7.07 µM with RPMI-8226 leukemia; 52.4 µM with SNB-19 CNS; 27.1 µM with UACC-62 melanoma. Moreover, the TGI amounted to 26.3 µM with OVCAR-5 ovarian, 19.3 µM in the assay with SN12C renal, 50.1 µM with SF-268 CNS and 68.2 µM in the assay with TK-10 renal.

With `COC(=O)CC(C(C(C)=O)C(=O)OCc1ccccc1)N1C(=O)OC(c2ccccc2)C1c1ccccc1` (stereo not given), the TGI with COLO 205 colon was more than 100 µM; in the assay with HT29 colon, more than 100 µM; in the assay on K-562 leukemia, more than 100 µM; in the assay on RPMI-8226 leukemia, more than 100 µM; with SNB-19 CNS, 91.7 µM and > 100 µM; in the assay on UACC-62 melanoma, more than 100 µM. Moreover, the TGI in the assay with OVCAR-5 ovarian, with SN12C renal, in the assay on SF-268 CNS and in the assay with TK-10 renal was more than 100 µM throughout. Besides, the GI50 with SNB-19 CNS was 10.5 µM and > 100 µM; in the assay on OVCAR-5 ovarian, > 100 µM and 34.3 µM.

`CCc1nn2ncccc2c1-c1ccnc(NC2CC2)n1`: the GI50 in the assay on COLO 205 colon, with HT29 colon, in the assay with K-562 leukemia, with RPMI-8226 leukemia, in the assay on SNB-19 CNS and with UACC-62 melanoma was more than 25 µM in each case. Further, the GI50 in the assay on OVCAR-5 ovarian, with SN12C renal, in the assay on SF-268 CNS and in the assay with TK-10 renal was more than 25 µM in each case. In addition, the TGI in the assay on COLO 205 colon, in the assay with HT29 colon, in the assay on K-562 leukemia, in the assay with RPMI-8226 leukemia, in the assay on SNB-19 CNS and with UACC-62 melanoma was more than 25 µM in each case. Also, the TGI with OVCAR-5 ovarian, with SN12C renal, in the assay with SF-268 CNS and in the assay with TK-10 renal was more than 25 µM throughout.

Take `COC(=O)N/N=C(\C)C(CN(C)C)C(c1ccccc1)c1c(O)c2ccccc2oc1=O` (stereo not given): the TGI with COLO 205 colon, in the assay on HT29 colon, in the assay on K-562 leukemia, in the assay with RPMI-8226 leukemia, in the assay on SNB-19 CNS and in the assay on UACC-62 melanoma was more than 100 µM throughout. Also, the TGI in the assay on OVCAR-5 ovarian, in the assay on SN12C renal, with SF-268 CNS and in the assay on TK-10 renal was more than 100 µM in each case.
